Test results: US20240132489A1, “AROMATIC HETEROCYCLIC COMPOUND, PHARMACEUTICAL COMPOSITION, AND USE THEREOF” (GT APEIRON THERAPEUTICS LIMITED, priority 2020, published 2024)
Where a name gives a salt, the structure may show the parent alone.

Columns and labels:
[1] = biological target: CDK2/cyclin E1 complex (Homo sapiens (Human), UniProt P24941); assay: In vitro enzymatic inhibitory activity test, CDK2; assay type: biochemical; conditions: Caliper mobility shift, 180 min at 27° C.
Method: CDK7/CyclinH was diluted in a test buffer solution (20 mM MES PH6.75, 0.01% Tween20, 50 ug/mL BSA, 6 mM MgCl2) to obtain a corresponding enzyme solution with a 2.4× concentration. CDK2/CyclinE1 was diluted in a test buffer solution (20 mM MES PH6.75, 0.01% Tween20, 50 ug/mL BSA, 6 mM MgCl2) to obtain a corresponding enzyme solution with a 2.4× concentration. CDK9/CyclinT1 was diluted in a test buffer solution (20 mM MES PH6.75, 0.01% Tween20, 50 ug/mL BSA, 10 mM MgCl2) to obtain a corresponding enzyme solution with a 2.4× concentration. CDK12/CyclinK was diluted in a test buffer solution (80 mM MES PH6.5, 0.01% Tween20, 50 ug/mL BSA, 10 mM MgCl2) to obtain a corresponding enzyme solution with a 2.4× concentration. […] 2 ul of a test compound solution was mixed with 5 ul of enzyme solution. After incubating for 10 min, 5 ul of the mixed solution of the polypeptide substrate and ATP was added. After incubating at 27° C. for 180 min, 4 uL of EDTA with a 120 mM concentration was added to each sample to stop the reaction. […] A CDK9/cyclin TI complex (8 nM) and a “5-FAM-CDK9tide” peptide substrate (2 μM, synthetic fluorophore labeled peptide having the following sequence: 5-FAM-GSRTPMY-NH2, where 5-FAM was as defined above, and NH2 represented C-terminal amide) were used for testing the CDK9 inhibition. […] A CDK2/cyclin E1 complex (0.5 nM) and the “5-FAM-CDK7tide” (2 μM) as defined above were used for testing the CDK2 inhibition.
(§1) Electrophoretic separation was performed on Caliper EZ Reader II by means of a fluorogenic substrate and a phosphorylated product to analyze the reaction mixture. Data were calculated by using GraphPad Prism version 6.0. IC50 values were adjusted by means of a nonlinear regression model using a dose-response curve.

[2] = system: HCC70 cells; assay: Cell bioactivity detection (CyQuant), HCC70; assay type: cell-based; conditions: Homo sapiens, HCC70, 72 h, human breast cancer cells HCC70, 72 hours
Method: (§2) Trypsinization was performed on A2780 and HCC70 cells. Cell suspensions were respectively transferred to 15 mL of centrifuge tubes and centrifuged at 800 rpm for 5 min. The supernatant was discarded. Resuspension in a fresh culture medium (RPMI 1640+10% FBS) was performed. After counting, the cells were inoculated at 2000/well in a 384-well plate (50 φL of 1640+10% FBS culture medium was added to the 2nd line and the 23rd line of the 384-well plate, and 50 μL of DPBS was added to surrounding wells). Incubation in an incubator (37° C., 5% CO2) was performed overnight.
(§3) The compound was added to the well plate the next day. The compound had the highest concentration of 10 μM and was diluted at the ratio of 1:4 to form 9 concentrations. The positive compound Paclitaxel had the highest concentration of 1 μM and was diluted at the ratio of 1:3 to form 9 concentrations. The DMSO content of each well was unified to 0.2%. A cell plate was centrifuged at 800 rpm for 30 seconds. Incubation for 72 hours in an incubator (37° C., 5% CO2) was performed. On the fourth day, a Cyquant reagent (3×) was prepared according to kit instructions. Each 384-well plate was prepared in the following proportions: DPBS: 11.568 mL, CyQuant® Direct nucleic acid stain: 72 μL, CyQuant® Direct background suppressor: 360 ILL. The plates were uniformly mixed and placed for standby application at room temperature. The cell plate was taken out and placed at room temperature to be balanced for 30 min. 25 μL of Cyquant reagent (3×) was dispensed to the cells in each well of the 384-well plates by using a Multi-drop dispenser. Incubation at 37° C. for 60 or more minutes was performed. The plates were read by Acumen (Acumen was configured to have a 488 nm excitation wavelength). IC50 results were analyzed by XLFIT5 of the IDBS company.

[3] = biological target: CDK9/CyclinT1 (Homo sapiens (Human), UniProt P50750); assay: In vitro enzymatic inhibitory activity test, CDK9; assay type: biochemical; conditions: Caliper mobility shift, 180 min at 27° C.
Method: (§4) CDK7/CyclinH was diluted in a test buffer solution (20 mM MES PH6.75, 0.01% Tween20, 50 ug/mL BSA, 6 mM MgCl2) to obtain a corresponding enzyme solution with a 2.4× concentration. CDK2/CyclinE1 was diluted in a test buffer solution (20 mM MES PH6.75, 0.01% Tween20, 50 ug/mL BSA, 6 mM MgCl2) to obtain a corresponding enzyme solution with a 2.4× concentration. CDK9/CyclinT1 was diluted in a test buffer solution (20 mM MES PH6.75, 0.01% Tween20, 50 ug/mL BSA, 10 mM MgCl2) to obtain a corresponding enzyme solution with a 2.4× concentration. CDK12/CyclinK was diluted in a test buffer solution (80 mM MES PH6.5, 0.01% Tween20, 50 ug/mL BSA, 10 mM MgCl2) to obtain a corresponding enzyme solution with a 2.4× concentration. The compounds were dissolved in dimethyl sulfoxide (DMSO) at a concentration of 10 mM. […] 2 ul of a test compound solution was mixed with 5 ul of enzyme solution. After incubating for 10 min, 5 ul of the mixed solution of the polypeptide substrate and ATP was added. After incubating at 27° C. for 180 min, 4 uL of EDTA with a 120 mM concentration was added to each sample to stop the reaction. […] A CDK9/cyclin TI complex (8 nM) and a “5-FAM-CDK9tide” peptide substrate (2 μM, synthetic fluorophore labeled peptide having the following sequence: 5-FAM-GSRTPMY-NH2, where 5-FAM was as defined above, and NH2 represented C-terminal amide) were used for testing the CDK9 inhibition. […] A CDK2/cyclin E1 complex (0.5 nM) and the “5-FAM-CDK7tide” (2 μM) as defined above were used for testing the CDK2 inhibition.
as §1

[4] = system: A2780 cells; assay: Cell bioactivity detection (CyQuant), A2780; assay type: cell-based, human; conditions: Homo sapiens, A2780, 72 h, ovarian carcinoma cells A2780, 72 hours
Method: as §2, §3

[5] = biological target: CDK7/cyclin H/MAT1 complex (Homo sapiens (Human), UniProt P50613); assay: In vitro enzymatic inhibitory activity test, CDK7; assay type: biochemical; conditions: Caliper mobility shift, 180 min at 27° C.
Method: as §4, §1

[6] = biological target: CDK12(aa686-1082)/cyclin K complex (Homo sapiens (Human), UniProt Q9NYV4); assay: In vitro enzymatic inhibitory activity test, CDK12; assay type: biochemical; conditions: Caliper mobility shift, 180 min at 27° C.
Method: as §4, §1

Sequence of CDK9/CyclinT1 (P50750 whole entry, species assumed): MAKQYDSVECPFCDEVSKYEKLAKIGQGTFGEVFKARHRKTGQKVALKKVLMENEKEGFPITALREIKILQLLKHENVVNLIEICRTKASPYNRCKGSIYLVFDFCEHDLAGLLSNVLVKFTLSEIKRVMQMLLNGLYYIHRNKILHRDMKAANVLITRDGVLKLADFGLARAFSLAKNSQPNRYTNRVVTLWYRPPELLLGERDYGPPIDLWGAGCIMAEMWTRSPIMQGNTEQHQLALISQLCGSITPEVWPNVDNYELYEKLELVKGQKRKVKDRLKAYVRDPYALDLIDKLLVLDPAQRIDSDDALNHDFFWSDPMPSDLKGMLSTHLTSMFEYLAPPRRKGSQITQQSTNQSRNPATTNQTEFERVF
Sequence of CDK9/CyclinT1 (O60563 whole entry partner, species assumed): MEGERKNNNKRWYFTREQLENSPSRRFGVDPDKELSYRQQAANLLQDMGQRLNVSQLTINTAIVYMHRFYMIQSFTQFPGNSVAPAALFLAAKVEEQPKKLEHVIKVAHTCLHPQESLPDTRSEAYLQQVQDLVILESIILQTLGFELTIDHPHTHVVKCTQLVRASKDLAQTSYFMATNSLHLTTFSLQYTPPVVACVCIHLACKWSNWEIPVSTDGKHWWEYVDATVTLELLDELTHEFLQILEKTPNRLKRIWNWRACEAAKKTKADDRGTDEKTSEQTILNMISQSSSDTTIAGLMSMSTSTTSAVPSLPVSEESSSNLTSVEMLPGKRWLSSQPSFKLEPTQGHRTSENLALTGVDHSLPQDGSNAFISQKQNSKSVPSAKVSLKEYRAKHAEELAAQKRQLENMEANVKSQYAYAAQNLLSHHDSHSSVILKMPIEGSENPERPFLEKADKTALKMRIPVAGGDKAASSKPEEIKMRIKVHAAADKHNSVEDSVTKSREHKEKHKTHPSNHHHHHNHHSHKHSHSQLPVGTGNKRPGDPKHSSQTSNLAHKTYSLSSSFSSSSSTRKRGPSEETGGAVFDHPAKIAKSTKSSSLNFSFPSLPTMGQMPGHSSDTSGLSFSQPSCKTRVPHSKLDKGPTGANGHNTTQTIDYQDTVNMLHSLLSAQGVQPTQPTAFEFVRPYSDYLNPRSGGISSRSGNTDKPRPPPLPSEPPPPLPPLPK
Sequence of CDK12(aa686-1082)/cyclin K complex (Q9NYV4 686-1082, species assumed): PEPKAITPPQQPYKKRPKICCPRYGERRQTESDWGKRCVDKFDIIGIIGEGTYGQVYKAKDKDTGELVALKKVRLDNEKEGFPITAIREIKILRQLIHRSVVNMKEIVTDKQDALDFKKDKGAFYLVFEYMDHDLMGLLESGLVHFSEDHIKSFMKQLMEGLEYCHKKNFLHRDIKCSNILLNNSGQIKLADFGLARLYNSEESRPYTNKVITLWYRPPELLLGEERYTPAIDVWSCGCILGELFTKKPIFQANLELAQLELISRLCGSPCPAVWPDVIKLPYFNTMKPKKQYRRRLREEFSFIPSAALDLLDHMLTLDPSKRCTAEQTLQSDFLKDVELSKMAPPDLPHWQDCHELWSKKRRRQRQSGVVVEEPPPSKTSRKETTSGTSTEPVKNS
Sequence of CDK12(aa686-1082)/cyclin K complex (O75909 whole entry partner, species assumed, the tested form may be a part): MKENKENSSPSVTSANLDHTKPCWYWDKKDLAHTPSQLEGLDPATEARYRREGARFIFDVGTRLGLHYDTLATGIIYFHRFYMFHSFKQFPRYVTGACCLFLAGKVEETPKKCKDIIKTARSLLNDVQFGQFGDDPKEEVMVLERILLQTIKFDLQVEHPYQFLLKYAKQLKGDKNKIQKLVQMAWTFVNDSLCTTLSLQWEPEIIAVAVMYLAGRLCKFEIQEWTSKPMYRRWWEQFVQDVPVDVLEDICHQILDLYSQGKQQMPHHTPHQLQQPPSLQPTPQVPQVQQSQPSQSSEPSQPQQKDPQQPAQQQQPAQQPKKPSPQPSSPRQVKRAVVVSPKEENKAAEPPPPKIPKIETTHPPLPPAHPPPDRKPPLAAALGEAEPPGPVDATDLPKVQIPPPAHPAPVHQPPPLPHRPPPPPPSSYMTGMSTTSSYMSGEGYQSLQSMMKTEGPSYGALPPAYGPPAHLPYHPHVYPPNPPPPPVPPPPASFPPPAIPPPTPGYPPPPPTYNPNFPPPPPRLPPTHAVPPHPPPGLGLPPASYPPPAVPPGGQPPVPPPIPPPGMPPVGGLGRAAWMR
Sequence of CDK7/cyclin H/MAT1 complex (P50613 whole entry, species assumed): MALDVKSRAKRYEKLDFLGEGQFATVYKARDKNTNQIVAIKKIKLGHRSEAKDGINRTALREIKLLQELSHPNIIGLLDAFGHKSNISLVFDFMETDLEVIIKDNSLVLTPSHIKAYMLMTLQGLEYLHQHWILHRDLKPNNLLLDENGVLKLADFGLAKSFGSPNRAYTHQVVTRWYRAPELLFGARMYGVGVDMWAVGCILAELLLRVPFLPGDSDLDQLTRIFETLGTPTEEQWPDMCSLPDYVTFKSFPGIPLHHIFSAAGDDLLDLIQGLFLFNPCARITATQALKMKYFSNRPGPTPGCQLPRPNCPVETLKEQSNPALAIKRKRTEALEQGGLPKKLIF
Sequence of CDK7/cyclin H/MAT1 complex (P51946 whole entry partner, species assumed): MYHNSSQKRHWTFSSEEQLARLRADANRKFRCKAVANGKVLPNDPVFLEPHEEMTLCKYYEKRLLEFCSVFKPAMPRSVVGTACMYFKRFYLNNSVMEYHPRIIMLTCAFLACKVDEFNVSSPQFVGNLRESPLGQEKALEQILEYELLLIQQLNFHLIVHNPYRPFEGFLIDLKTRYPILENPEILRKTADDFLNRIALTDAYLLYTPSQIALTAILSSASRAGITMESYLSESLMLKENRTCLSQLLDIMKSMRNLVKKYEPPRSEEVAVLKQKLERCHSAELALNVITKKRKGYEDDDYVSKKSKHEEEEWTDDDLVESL
Sequence of CDK7/cyclin H/MAT1 complex (P51948 whole entry partner, species assumed): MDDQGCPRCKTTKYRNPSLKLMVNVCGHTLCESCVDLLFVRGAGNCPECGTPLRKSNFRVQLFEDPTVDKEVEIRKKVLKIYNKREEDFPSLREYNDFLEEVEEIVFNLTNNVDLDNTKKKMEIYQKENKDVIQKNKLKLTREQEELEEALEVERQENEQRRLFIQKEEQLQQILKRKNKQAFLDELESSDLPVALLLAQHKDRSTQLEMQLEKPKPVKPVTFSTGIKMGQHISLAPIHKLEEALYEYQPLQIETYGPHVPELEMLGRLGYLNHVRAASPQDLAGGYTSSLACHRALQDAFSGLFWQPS

| IC50 [1] | IC50 [3] | IC50 [4] | IC50 [5] | IC50 [6] | SMILES | IC50 [2] |
| --- | --- | --- | --- | --- | --- | --- |
| > 10000 nM | 8070 nM | 36 nM | 8.79 nM | > 10000 nM | CC1(C)CC[C@H](Nc2ncc(C(F)(F)F)c(-c3c[nH]c4nc(N5CCOCC5)ccc34)n2)CN1 [Compound 60, (S)—N-(6,6-dimethylpiperidin-3-yl)-4-(6-morpholinyl-1H-pyrrol[2,3-b]pyridin-3-yl)-5-(trifluoromethyl)pyrimidine-2-amine] | 475 nM |
| 3790 nM | 2790 nM | 90.1 nM | 17.4 nM | 1170 nM | C[C@@H]1OCC2(CCN(c3ccc4c(-c5nc(N[C@H]6CCCNC6)ncc5C(F)(F)F)c[nH]c4n3)CC2)[C@@H]1N [Compound 12, (3S,4S)-3-methyl-8-(3-(2-(((S)-piperidin-3-yl)amino)-5-(trifluoromethyl)pyrimidin-4-yl)-1H-pyrrol[2,3-b]pyridin-6-yl)-2-oxa-8-azaspiro[4.5]decan-4-amine] | 69 nM |
| 8500 nM | 5250 nM | 110 nM | 17.4 nM | 1970 nM | FC(F)(F)c1cnc(N[C@H]2CCCNC2)nc1-c1c[nH]c2nc(N3CCN(C4COC4)CC3)ccc12 [Compound 24, (S)-4-(6-(4-(oxetan-3-yl)piperazin-1-yl)-1H-pyrrolo[2,3-b]pyridin-3-yl)-N-(piperidin-3-yl)-5-(trifluoromethyl)pyrimidine-2-amine] | 72 nM |
| 2680 nM | 722 nM | 12 nM | 17.4 nM | 679 nM | OC1CCN(c2ccc3c(-c4nc(N[C@H]5CCCNC5)ncc4C(F)(F)F)c[nH]c3n2)CC1 [Compound 3, (S)-1-(3-(2-(piperidin-3-ylamino)-5-(trifluoromethyl)pyrimidin-4-yl)-1H-pyrrolo[2,3-b]pyridin-6-yl)piperidin-4-ol] | 7.9 nM |
| > 10000 nM | > 10000 nM | 30 nM | 9.5 nM | > 10000 nM | C[C@H]1COCCN1c1ccc2c(-c3nc(N[C@H]4CCC(C)(C)NC4)ncc3C(F)(F)F)c[nH]c2n1 [Compound 26, N—((S)-6,6-dimethylpiperidin-3-yl)-4-(6-((S)-3-methylmorpholinyl)-1H-pyrrolo[2,3-b]pyridin-3-yl)-5-(trifluoromethyl)pyrimidine-2-amine] | 52 nM |
| 2880 nM | 3580 nM | 11 nM | 10.8 nM | 1230 nM | FC(F)(F)c1cnc(N[C@H]2CCCNC2)nc1-c1c[nH]c2nc(N3CCC4(CCO4)CC3)ccc12 [Compound 16, (S)-4-(6-(1-oxa-7-azaspiro[3.5]nonan-7-yl)-1H-pyrrolo[2,3-b]pyridin-3-yl)-N-(piperidin-3-yl)-5-(trifluoromethyl)pyrimidine-2-amine] | 13 nM |
| 3280 nM | 2970 nM | 8.3 nM | 8.43 nM | 765 nM | N#CC1CCN(c2ccc3c(-c4nc(N[C@H]5CCCNC5)ncc4C(F)(F)F)c[nH]c3n2)CC1 [Compound 20, (S)-1-(3-(2-(piperidine-3-amino)-5-(trifluoromethyl)pyrimidin-4-yl)-1H-pyrrolo[2,3-b]pyridin-6-yl)piperidine-4-nitrile] | 13.7 nM |
| 1550 nM | 2750 nM | 5.37 nM | 5.85 nM | 773 nM | CC[C@H]1COCCN1c1ccc2c(-c3nc(N[C@H]4CCCNC4)ncc3C(F)(F)F)c[nH]c2n1 [Compound 104, 4-(6-((S)-3-ethylmorpholinyl)-1H-pyrrol[2,3-b]pyridin-3-yl)-N—((S)-piperidin-3-yl)-5-(trifluoromethyl)pyrimidine-2-amine formate] | 4.97 nM |
